This assay concerns the target human GSK3β (Homo sapiens, UniProt P49841). Kind of assay: Screening for GSK3 inhibitory activity using a cell-free assay. It counts as biochemical. As to conditions: read-out: IC50 with respect to GSK3. The method in brief: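 Compounds in DMSO were tested against human GSK3β over a three-hour kinase reaction. Radiolabeled phosphate transferred to the peptide was captured on streptavidin plates after EDTA/ATP stop and quantified by scintillation counting. Signal was plotted versus compound concentration.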

Bounds are passed on as bounds.

human GSK3β, sequence (P49841 whole entry): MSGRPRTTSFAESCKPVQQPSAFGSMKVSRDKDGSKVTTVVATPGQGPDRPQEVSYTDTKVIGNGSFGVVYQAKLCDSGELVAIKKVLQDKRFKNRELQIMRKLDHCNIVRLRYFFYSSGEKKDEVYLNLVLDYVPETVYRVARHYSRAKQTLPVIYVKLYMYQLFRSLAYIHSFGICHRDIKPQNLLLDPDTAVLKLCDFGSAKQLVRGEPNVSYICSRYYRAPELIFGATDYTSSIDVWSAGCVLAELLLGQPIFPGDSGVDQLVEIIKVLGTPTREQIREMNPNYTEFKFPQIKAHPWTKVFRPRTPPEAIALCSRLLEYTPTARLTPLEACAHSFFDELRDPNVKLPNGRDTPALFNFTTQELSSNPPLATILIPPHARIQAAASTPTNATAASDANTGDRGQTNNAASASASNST

As to `CCOC(=O)c1cnc(NCCNc2ccc([N+](=O)[O-])cn2)nc1-c1ccc(C)c(C)c1` [ethyl 4-(3,4-dimethylphenyl)-2-[{2-[(5-nitro(2-pyridyl))amino]ethyl}amino)pyrimidine-5-carboxylate], the IC50 was at most 10 µM. As for `CCOC(=O)c1cnc(NCCNc2ccc([N+](=O)[O-])cn2)nc1-c1cc(Cl)cc(Cl)c1` [ethyl 4-(3,5-dichlorophenyl)-2-({2-[(5-nitro(2-pyridyl))amino]ethyl}amino)-pyrimidine-5-carboxylate], the figure is at most 10 µM.

For `CCOC(=O)c1cnc(NCCNc2ccc([N+](=O)[O-])cn2)nc1-c1cccc(C#N)c1` [ethyl 4-(3-cyanophenyl)-2-({2-[(5-nitro(2-pyridyl))amino]ethyl}amino)pyrimidine-5-carboxylate], the IC50 was at most 10 µM. Take `CCOC(=O)c1cnc(NCCNc2ccc([N+](=O)[O-])cn2)nc1-c1cccc(F)c1` [ethyl 4-(3-fluorophenyl)-2-({2-[(5-nitro(2-pyridyl))amino]ethyl}amino)pyrimidine-5-carboxylate]: the IC50 was at most 10 µM. The figure for `CCOC(=O)c1cnc(NCCc2ccccn2)nc1-c1cccc([N+](=O)[O-])c1` [ethyl 4-(3-nitrophenyl)-2-[(2-(2-pyridyl)ethyl)-amino]pyrimidine-5-carboxylate] is at most 10 µM; for `CCOC(=O)c1cnc(NCCNc2ccccn2)nc1-c1cccc([N+](=O)[O-])c1` [ethyl 4-(3-nitrophenyl)-2-{[2-(2-pyridylamino)ethyl]amino}pyrimidine-5-carboxylate] it is at most 10 µM; for `CCOC(=O)c1cnc(NCCNc2ccc([N+](=O)[O-])cn2)nc1-c1ccc(-c2nnn[nH]2)cc1` [ethyl 4-(4-(1H-1,2,3,4-tetraazol-5-yl)phenyl)-2-({2-[(5-nitro(2-pyridyl))amino]ethyl}amino)pyrimidine-5-carboxylate] it is at most 1 µM.

For `CCOC(=O)c1cnc(NCCNc2ccc([N+](=O)[O-])cn2)nc1-c1ccc(Br)cc1` [ethyl 4-(4-bromophenyl)-2-({2-[(5-nitro(2-pyridyl))amino]ethyl}amino)pyrimidine-5-carboxylate], the IC50 is at most 1 µM. The figure for `CCCCOc1ccc(-c2nc(NCCNc3ccc([N+](=O)[O-])cn3)ncc2C(=O)OCC)cc1` [ethyl 4-(4-butoxyphenyl)-2-({2-[(5-nitro(2-pyridyl))amino]ethyl}amino)pyrimidine-5-carboxylate] is at most 10 µM.

Consider `CCOC(=O)c1c(CC)nc(NCCNc2ccc(C#N)cn2)nc1-c1ccc(C(N)=O)cc1` [ethyl 4-(4-carbamoylphenyl)-2-({2-[(5-cyano(2-pyridyl))amino]ethyl}amino)-6-ethylpyrimidine-5-carboxylate], for which the IC50 is at most 1 µM.

As to `CCOC(=O)c1c(-c2ccc(C(N)=O)cc2)nc(NCCNc2ccc([N+](=O)[O-])cn2)nc1-c1ccc([N+](=O)[O-])cc1` [ethyl 4-(4-carbamoylphenyl)-2-({2-[(5-nitro(2-pyridyl))amino]ethyl}-amino)-6-(4-nitrophenyl)pyrimidine-5-carboxylate], the IC50 is at most 1 µM. The figure for `CCOC(=O)c1c(CC)nc(NCCNc2ncccc2[N+](=O)[O-])nc1-c1ccc(C(N)=O)cc1` [ethyl 4-(4-carbamoylphenyl)-6-ethyl-2-({2-[(3-nitro(2-pyridyl))amino]ethyl}amino)pyrimidine-5-carboxylate] is at most 10 µM; for `CCOC(=O)c1c(CC)nc(NCCNc2ccc([N+](=O)[O-])cn2)nc1-c1ccc(C(N)=O)cc1` [ethyl 4-(4-carbamoylphenyl)-6-ethyl-2-({2-[(5-nitro(2-pyridyl))amino]ethyl}amino)pyrimidine-5-carboxylate] it is at most 1 µM. Take `CCOC(=O)c1c(CC)nc(NCCCNc2ccc([N+](=O)[O-])cn2)nc1-c1ccc(C(N)=O)cc1` [ethyl 4-(4-carbamoylphenyl)-6-ethyl-2-({3-[(5-nitro(2-pyridyl))amino]propyl}amino)pyrimidine-5-carboxylate]: the IC50 is at most 10 µM. The figure for `CCOC(=O)c1c(CC)nc(NCCNc2ccc(C(F)(F)F)cn2)nc1-c1ccc(C(N)=O)cc1` [ethyl 4-(4-carbamoylphenyl)-6-ethyl-2-[(2-{[5-(trifluoromethyl)(2-pyridyl)]amino}-ethyl)amino]pyrimidine-5-carboxylate] is at most 10 µM; for `CCOC(=O)c1c(CC)nc(NCCNc2ccccn2)nc1-c1ccc(C(N)=O)cc1` [ethyl 4-(4-carbamoylphenyl)-6-ethyl-2-{[2-(2-pyridylamino)ethyl]-amino}pyrimidine-5-carboxylate] it is at most 10 µM. The figure for `CCOC(=O)c1c(CC)nc(NCCNc2ncccn2)nc1-c1ccc(C(N)=O)cc1` [ethyl 4-(4-carbamoylphenyl)-6-ethyl-2-{[2-(pyrimidin-2-ylamino)ethyl]amino}pyrimidine-5-carboxylate] is at most 10 µM. With `CCOC(=O)c1cnc(NCCNc2ccc([N+](=O)[O-])cn2)nc1-c1ccc(Cl)cc1` [ethyl 4-(4-chlorophenyl)-2-({2-[(5-nitro(2-pyridyl))amino]ethyl}amino)pyrimidine-5-carboxylate], the IC50 is at most 1 µM. Take `CCOC(=O)c1c(CC)nc(NCCNc2ccc([N+](=O)[O-])cn2)nc1-c1ccc(C#N)cc1` [ethyl 4-(4-cyano-phenyl)-6-ethyl-2-({2-[(5-nitro(2-pyridyl))amino]ethyl}amino)pyrimidine-5-carboxylate]: the IC50 is at most 1 µM.

For the compound `CCOC(=O)c1cnc(NCCNc2cc(C)c([N+](=O)[O-])cn2)nc1-c1ccc(C#N)cc1` [ethyl 4-(4-cyanophenyl)-2-({2-[(4-methyl-5-nitro(2-pyridyl))amino]ethyl}amino)pyrimidine-5-carboxylate], the IC50 is at most 1 µM. The figure for `CCOC(=O)c1cnc(NCCNc2ccc([N+](=O)[O-])cc2)nc1-c1ccc(C#N)cc1` [ethyl 4-(4-cyanophenyl)-2-({2-[(4-nitrophenyl)amino]ethyl}amino)-pyrimidine-5-carboxylate] is at most 1 µM; for `CCOC(=O)c1c(-c2ccc(C#N)cc2)nc(NCCNc2ccc([N+](=O)[O-])cn2)nc1-c1ccc([N+](=O)[O-])cc1` [ethyl 4-(4-cyanophenyl)-2-({2-[(5-nitro(2-pyridyl))amino]ethyl}amino)-6-(4-nitrophenyl)pyrimidine-5-carboxylate] it is at most 1 µM.

In the case of `CCOC(=O)c1cnc(NCCNc2ccc([N+](=O)[O-])cn2)nc1-c1ccc(C#N)cc1` [ethyl 4-(4-cyanophenyl)-2-({2-[(5-nitro(2-pyridyl))amino]ethyl}amino)pyrimidine-5-carboxylate], the IC50 is at most 1 µM. As for `CCOC(=O)c1cnc(NCCc2ccccn2)nc1-c1ccc(C#N)cc1` [ethyl 4-(4-cyanophenyl)-2-[(2-(2-pyridyl)ethyl)amino]-pyrimidine-5-carboxylate], the figure is at most 10 µM; as for `CCNC(=O)c1ccc(NCCNc2ncc(C(=O)OCC)c(-c3ccc(C#N)cc3)n2)nc1` [ethyl 4-(4-cyanophenyl)-2-[(2-{[5-(N-ethylcarbamoyl)(2-pyridyl)]amino}-ethyl)amino]pyrimidine-5-carboxylate], at most 10 µM; as for `CCOC(=O)c1cnc(NCCNc2ccc(C(=O)N3CCOCC3)cn2)nc1-c1ccc(C#N)cc1` [ethyl 4-(4-cyanophenyl)-2-[(2-{[5-(morpholin-4-ylcarbonyl)(2-pyridyl)]amino}ethyl)amino]pyrimidine-5-carboxylate], at most 10 µM.

These data come from patent publication US7425557B2, “Inhibitors of glycogen synthase kinase 3” (Novartis Vaccines and Diagnostics, Inc., priority 1998, dated 2008).
